Test results reported in PubChem BioAssay (NCI).
Values joined by “and” are separate entries in the source; they are usually repeats but may differ in a detail not shown here. Equal entries are not always repeated.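 How tested: cells in 96-well plates exposed to compound for 48 hours at five concentrations. Abbreviation: GI50, concentration required for 50% inhibition of growth. TGI is the concentration that stops growth completely.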

Columns and labels:
Experiment in all cases: NCI tumour cell line growth inhibition, 48 h
[1] = test system: DMS 273 small cell lung
[2] = test system: LXFL 529 NSCLC
[3] = test system: RXF-631 renal
[4] = test system: DU-145 prostate
[5] = test system: HOP-18 NSCLC
[6] = test system: T-47D breast
[7] = test system: DMS 114 small cell lung
[8] = test system: HS 578T breast
[9] = test system: MDA-N
[10] = test system: P388 leukemia
[11] = test system: SN12K1 renal
[12] = test system: P388/ADR leukemia

Row | Compound | TGI [1] [µM] | TGI [2] [µM] | TGI [3] [µM] | TGI [5] [µM] | TGI [7] [µM] | also measured
1 | COc1ccc(C(=O)C(c2ccc(OC)cc2)C2(O)C(=O)Nc3ccccc32)cc1 (centres undefined) | > 100 | > 100 | > 100 | – | – | –
2 | CCC(C)(C)C(=O)O[C@H]1C[C@@H](C)C=C2C=C[C@H](C)[C@H](CC[C@@H]3C[C@@H](O)CC(=O)O3)[C@H]21 | > 30 | > 30 | > 30 | > 30 | > 30 | GI50 [4]: 12.1 µM; TGI [4]: 24.6 µM; GI50 [6]: 11.9 µM; TGI [6]: 28.2 µM; GI50 [8]: 2.7 µM; TGI [8]: 16.4 µM
3 | [O-]c1c2c(nn1-c1ccccc1)c1ccccc1c[n+]2Cc1ccccc1 | > 100 | > 100 | > 100 | > 100 | > 100 | –
4 | O=C(O)/C=C/n1c2ccccc2c(=O)c2ccccc21 | > 100 | – | > 100 | – | > 100 | –
5 | CCOC12OC3=C(CC1CC1=C(CCC1=O)O2)C(=O)CC3 (centres undefined) | > 100 | > 100 | > 100 | > 100 | > 100 | –
6 | C=CCCC(OCOCCOC)c1cc(C)c(O[Si](C)(C)C(C)(C)C)c(C)c1 (centres undefined) | – | > 100 | 30.4 | 96.4 | 28 | –
7 | Cc1cc(O)cc2oc(=O)c3c(O)cc(O)cc3c12 | 58.2 | > 100 | – | > 100 | 86.1 | –
8 | C/C(CC(=O)Nc1ccc(Cl)c(Cl)c1)=N/NC(=O)C[n+]1ccccc1 | > 100 | > 100 | – | > 100 | 66.1 | –
9 | COc1ccc2c(=O)c(C)c(-c3ccccc3)oc2c1CN(C)C | > 100 | > 100 | – | > 100 | > 100 | –
10 | O=S1c2ccccc2N=C(c2ccc3ccccc3c2)CC1C1=CC=CCC1 (centres undefined) | 41 | 29.7 | 37 | > 100 | 33.3 | –
11 | Cc1c(Cl)ccc2c1NC(=O)C2(O)C(C(=O)c1ccccc1)c1ccccc1 (centres undefined) | > 100 | > 100 | > 100 | > 100 | 44.2 | –
12 | COc1ccc2c(c1)c(=O)c1ccccc1n2/C=C/C(=O)O | > 67 | > 100 | – | > 100 | > 100 | –
13 | COC(=O)/C=C1/CCC2[C@@H](C(=O)CC3[C@]2(C)CCC[C@@]3(C)C(=O)OC)C1C (some centres undefined) | 29.8 | 20.8 | 30.9 | 27.5 | 24.8 | –
14 | CN(C)CCNC(=O)c1cc2ccccc2c2nc3ccccc3nc12 | > 100 | > 22.3 | – | > 22.9 | 2.43 | –
15 | CCCCCCCCCCCCCC(=O)O[C@H]1CC[C@H](NC(=O)[C@H](OC)[C@H](O)[C@@H](O)[C@H](O)/C=C/C(C)C)C(=O)NC1 | 0.0303 | 7.26 | – | > 51.2 | – | GI50 [4]: 0.00512 µM; TGI [4]: 34.6 µM and > 100 µM; GI50 [1]: < 0.001 µM; GI50 [2]: 0.00512 µM; GI50 [5]: > 51.2 µM; TGI [6]: > 100 µM; GI50 [7]: < 0.001 µM; GI50 [9]: 0.0165 µM; TGI [9]: 44.7 µM and 12.1 µM; GI50 [8]: 0.0112 µM
16 | COC(=O)NC1C(C)OC(OC2C/C=C(/C)C3C=CC4C(OC5CC(OC6CC(O)C(OC7CC(O)C(OC)C(C)O7)C(C)O6)C(O)C(C)O5)C(C)CC(C)C4C3(C)/C(O)=C3\C(=O)OC4(CC(C)C(CO)=CC4/C=C\2C)C3=O)CC1(C)[N+](=O)[O-] (centres undefined) | 28.9 | 9.19 | 41.7 | 31.4 | 11.5 | TGI [10]: 17.4 µM; TGI [4]: 27.5 µM; TGI [11]: 22.6 µM; TGI [12]: 98.1 µM; TGI [6]: 31.8 µM; TGI [9]: 19.5 µM; TGI [8]: 40.4 µM
17 | CS(=O)(=O)NNS(=O)(=O)c1cccc([N+](=O)[O-])c1 | > 100 | > 100 | > 100 | – | > 100 | –
18 | Cc1ccc(NC(=O)C(=O)C2C(=O)N(c3ccccc3)N=C2N)cc1C (centres undefined) | > 100 | > 100 | > 100 | > 100 | > 100 | –
19 | COC(=O)C1=C(O)c2cc(OC)c(OC)c(OC)c2[C@H](c2cc(OC)c(OC)c(OC)c2)C1C(=O)OC (some centres undefined) | 51.4 | > 100 | 97.2 | – | 87.7 | –
